Laboratory results published in article PMC6128740 (European journal of drug metabolism and pharmacokinetics, 2018).
Where two headings read alike, the source gives them in different places.

Legend:
[1] = Tissue distribution of 14C-C3 in mice; parameters: species or system C57BL/6J mice; conditions: mouse, in vivo
[2] = C3 partitioning and plasma protein binding in mouse blood and plasma; assay type: in vitro ADME
[3] = Stability of C3 in solutions at pH 1 or pH 10; assay type: physicochemical; conditions: pH 1 or pH 10 for >24 h at 37°C
[4] = mouse, in vivo; for V (volume of distribution): 1.1 mg/kg
pregnant mouse dams = conditions: in vivo; cited from earlier work
[5] = mouse, in vivo
[6] = 10 or 100 μg/ml, 3000 mwco centricon filter

tissue radioactivity, 7-day pump vs single bolus dose, adjusted for dose [1]: 5 times
14C-C3 in the filtrate of the saline control [2, 6]: 73%
14C-C3 in the plasma filtrate (free) [2, 6]: 13%
fraction of blood C3 in the plasma fraction ([2]; blood from treated animals and naïve blood spiked with 14C-C3, centrifugation): > 99%
protein bound ([2]; mouse plasma, 10 or 100 μg/ml, mean ± SEM): 87 ± 0.1%
V (volume of distribution) ([4]; ip): 0.91 ± 0.12 L/kg
V (volume of distribution) ([4]; iv): 0.85 ± 0.08 L/kg
Oral bioavailability ([4]; po): ~ 10 % of the i.v. administration
brain uptake [5]: 10 % of the administered dose
Substance: e,e,e, tris malonic acid C60 [C3]
stability in solution [3]: a small fraction of carboxylic acid head-groups were removed, but the cyclopropane carbons were intact
effects on fertility, pregnancy, viability or anatomy of the offspring (pregnant mouse dams): failed to find any effects
